In brackets after ≈: the same amount, converted by molar mass.
Experiments:
Format in all cases: functional
[1] = tested on: Mycobacterium tuberculosis; assay: Antitubercular activity against Mycobacterium tuberculosis H37Rv by microplate alamar blue assay
[2] = tested on: Mycobacterium tuberculosis; assay: Antimycobacterial activity against Mycobacterium tuberculosis H37Rv ATCC 27294 by rapid direct susceptibility test
[3] = tested on: Mycolicibacterium smegmatis; assay: Antimycobacterial activity against Mycobacterium smegmatis CMCC 93202 after 72 hrs by double dilution method; conditions: CMCC 93202, 72 h
[4] = tested on: Mycobacterium tuberculosis; assay: Antimycobacterial activity against Mycobacterium tuberculosis H37Rv after 3 to 7 days by rapid direct susceptibility test

`COc1cc(Cc2cnc(/N=C3\C(=O)N(CN4CCN(c5cc6c(cc5F)c(=O)c(C(=O)O)cn6C5CC5)CC4)c4ccc(C)cc43)nc2N)cc(OC)c1OC` gave an MIC [1] of 0.78 to 3.13 µg/mL (≈ 1 to 4.03 µM).
Work on `COc1cc(Cc2cnc(/N=C3\C(=O)N(CN4CCN(c5c(F)cc6c(=O)c(C(=O)O)cn(C7CC7)c6c5OC)CC4C)c4ccc(C)cc43)nc2N)cc(OC)c1OC` (centres undefined) yielded an MIC [1] of 0.78 to 3.13 µg/mL (≈ 0.95 to 3.81 µM).
With `CO/N=C1\C(=O)N(CN2CCC[C@H]3CN(c4c(F)cc5c(=O)c(C(=O)O)cn(C6CC6)c5c4OC)C[C@H]32)c2ccc(F)cc21` the MIC [2] was 0.39 to 16 µg/mL (≈ 0.642 to 26.3 µM) and the MIC [3] was 0.39 to 16 µg/mL (≈ 0.642 to 26.3 µM).
With `CCO/N=C1\C(=O)N(CN2CCC[C@H]3CN(c4c(F)cc5c(=O)c(C(=O)O)cn(C6CC6)c5c4OC)C[C@H]32)c2ccccc21` the MIC [2] was 0.39 to 16 µg/mL (≈ 0.646 to 26.5 µM) and the MIC [3] was 0.39 to 16 µg/mL (≈ 0.646 to 26.5 µM).
`COc1c(N2C[C@@H]3CCCN(CCN4C(=O)/C(=N\O)c5ccccc54)[C@@H]3C2)c(F)cc2c(=O)c(C(=O)O)cn(C3CC3)c12` showed an MIC [2] of 0.39 to 16 µg/mL (≈ 0.661 to 27.1 µM) and an MIC [3] of 0.39 to 16 µg/mL (≈ 0.661 to 27.1 µM).
`CC[C@@H](CO)NCCN[C@@H](CC)CO` [ETHAMBUTOL] gave an MIC [1] of 1.88 µg/mL (≈ 9.2 µM).
Molecule `NC(=O)N/N=C1/C(=O)N(CCCN2CCN(c3cc4c(cc3F)c(=O)c(C(=O)O)cn4C3CC3)CC2)c2ccccc21` has an MIC [4] of 0.1 to 64 µg/mL (≈ 0.174 to 111 µM).
Work on `CCO/N=C1\C(=O)N(CCN2CCC[C@H]3CN(c4c(F)cc5c(=O)c(C(=O)O)cn(C6CC6)c5c4OC)C[C@H]32)c2ccccc21` yielded an MIC [2] of 0.39 to 16 µg/mL (≈ 0.631 to 25.9 µM) and an MIC [3] of 0.39 to 16 µg/mL (≈ 0.631 to 25.9 µM).
Work on `COc1c(N2C[C@@H]3CCCN(Cc4cn(CCN5C(=O)C(=O)c6ccccc65)nn4)[C@@H]3C2)c(F)cc2c(=O)c(C(=O)O)cn(C3CC3)c12` yielded an MIC [4] of 0.1 to 0.78 µg/mL (≈ 0.153 to 1.19 µM).
With `COc1c(N2C[C@@H]3CCCN(CN4C(=O)C(=O)c5cc(F)ccc54)[C@@H]3C2)c(F)cc2c(=O)c(C(=O)O)cn(C3CC3)c12` the MIC [2] was 0.39 to 16 µg/mL (≈ 0.674 to 27.7 µM) and the MIC [3] was 0.39 to 16 µg/mL (≈ 0.674 to 27.7 µM).
Molecule `COc1c(N2C[C@@H]3CCCN(CN4C(=O)/C(=N\O)c5ccccc54)[C@@H]3C2)c(F)cc2c(=O)c(C(=O)O)cn(C3CC3)c12` has an MIC [2] of 0.39 to 16 µg/mL (≈ 0.678 to 27.8 µM) and an MIC [3] of 0.39 to 16 µg/mL (≈ 0.678 to 27.8 µM).
Molecule `CCn1cc(C(=O)O)c(=O)c2cc(F)c(N3CCN(CN4C(=O)/C(=N\c5ncc(Cc6cc(OC)c(OC)c(OC)c6)c(N)n5)c5cc(Cl)ccc54)C(C)C3)c(F)c21` (centres undefined) has an MIC [1] of 0.78 to 3.13 µg/mL (≈ 0.954 to 3.83 µM).
With `CO/N=C1\C(=O)N(CCN2CCC[C@H]3CN(c4c(F)cc5c(=O)c(C(=O)O)cn(C6CC6)c5c4OC)C[C@H]32)c2cc(F)ccc21` the MIC [2] was 0.39 to 16 µg/mL (≈ 0.627 to 25.7 µM) and the MIC [3] was 0.39 to 16 µg/mL (≈ 0.627 to 25.7 µM).
With `NC(=S)N/N=C1/C(=O)N(CCCN2CCN(c3cc4c(cc3F)c(=O)c(C(=O)O)cn4C3CC3)CC2)c2ccccc21` the MIC [4] was 0.1 to 64 µg/mL (≈ 0.169 to 108 µM).
`CO/N=C1\C(=O)N(CN2CCC[C@H]3CN(c4c(F)cc5c(=O)c(C(=O)O)cn(C6CC6)c5c4OC)C[C@H]32)c2ccccc21` showed an MIC [2] of 0.39 to 16 µg/mL (≈ 0.661 to 27.1 µM) and an MIC [3] of 0.39 to 16 µg/mL (≈ 0.661 to 27.1 µM).
`Cc1ccc2c(c1)/C(=N\NC(N)=S)C(=O)N2CCCN1CCN(c2cc3c(cc2F)c(=O)c(C(=O)O)cn3C2CC2)CC1` was tested, and the MIC [4] was 0.1 to 64 µg/mL (≈ 0.165 to 106 µM).
In the case of `COc1c(N2C[C@@H]3CCCN(CCN4C(=O)/C(=N\O)c5cc(F)ccc54)[C@@H]3C2)c(F)cc2c(=O)c(C(=O)O)cn(C3CC3)c12`, the MIC [2] is reported as 0.39 to 16 µg/mL (≈ 0.642 to 26.3 µM) and the MIC [3] is reported as 0.39 to 16 µg/mL (≈ 0.642 to 26.3 µM).
With `COc1c(N2C[C@@H]3CCCN(CCN4C(=O)C(=O)c5ccccc54)[C@@H]3C2)c(F)cc2c(=O)c(C(=O)O)cn(C3CC3)c12` the MIC [2] was 0.39 to 16 µg/mL (≈ 0.679 to 27.8 µM) and the MIC [3] was 0.39 to 16 µg/mL (≈ 0.679 to 27.8 µM).
`CCO/N=C1/C(=O)N(CCn2cc(CN3CCC[C@H]4CN(c5c(F)cc6c(=O)c(C(=O)O)cn(C7CC7)c6c5OC)C[C@H]43)nn2)c2ccccc21` was tested, and the MIC [4] was 0.1 to 0.78 µg/mL (≈ 0.143 to 1.12 µM).
Molecule `COc1cc(Cc2cnc(/N=C3\C(=O)N(CN4CCN(c5c(F)cc6c(=O)c(C(=O)O)cn(C7CC7)c6c5OC)CC4C)c4ccc(F)cc43)nc2N)cc(OC)c1OC` (centres undefined) has an MIC [1] of 0.78 to 3.13 µg/mL (≈ 0.946 to 3.79 µM).
For `COc1cc(Cc2cnc(/N=C3\C(=O)N(CN4CCN(c5cc6c(cc5F)c(=O)c(C(=O)O)cn6C5CC5)CC4)c4ccc(Cl)cc43)nc2N)cc(OC)c1OC`, the MIC [1] was 0.78 to 3.13 µg/mL (≈ 0.978 to 3.93 µM).
In the case of `COc1c(N2C[C@@H]3CCCN(CCN4C(=O)/C(=N\NC(N)=O)c5ccccc54)[C@@H]3C2)c(F)cc2c(=O)c(C(=O)O)cn(C3CC3)c12`, the MIC [2] is reported as 0.39 to 16 µg/mL (≈ 0.617 to 25.3 µM) and the MIC [3] is reported as 0.39 to 16 µg/mL (≈ 0.617 to 25.3 µM).
In the case of `CCn1cc(C(=O)O)c(=O)c2cc(F)c(N3CCN(CN4C(=O)/C(=N\c5ncc(Cc6cc(OC)c(OC)c(OC)c6)c(N)n5)c5cc(F)ccc54)CC3)cc21`, the MIC [1] is reported as 0.78 to 3.13 µg/mL (≈ 1.01 to 4.07 µM).
For `COc1cc(Cc2cnc(/N=C3\C(=O)N(CN4CCN(c5c(F)cc6c(=O)c(C(=O)O)cn(C7CC7)c6c5OC)CC4C)c4ccc(Cl)cc43)nc2N)cc(OC)c1OC` (centres undefined), the MIC [1] was 0.78 to 3.13 µg/mL (≈ 0.927 to 3.72 µM).
In the case of `COc1c(N2C[C@@H]3CCCN(CN4C(=O)/C(=N\NC(N)=O)c5cc(F)ccc54)[C@@H]3C2)c(F)cc2c(=O)c(C(=O)O)cn(C3CC3)c12`, the MIC [2] is reported as 0.39 to 16 µg/mL (≈ 0.614 to 25.2 µM) and the MIC [3] is reported as 0.39 to 16 µg/mL (≈ 0.614 to 25.2 µM).
`COc1c(N2C[C@@H]3CCCN(Cc4cn(CCN5C(=O)/C(=N/O)c6ccccc65)nn4)[C@@H]3C2)c(F)cc2c(=O)c(C(=O)O)cn(C3CC3)c12` gave an MIC [4] of 0.1 to 0.78 µg/mL (≈ 0.149 to 1.16 µM).
Molecule `COc1c(N2C[C@@H]3CCCN(Cc4cn(CCN5C(=O)/C(=N/NC(N)=O)c6cc(Br)ccc65)nn4)[C@@H]3C2)c(F)cc2c(=O)c(C(=O)O)cn(C3CC3)c12` has an MIC [4] of 0.1 to 0.78 µg/mL (≈ 0.126 to 0.985 µM).
